Earlier results, collected in US20260364145A1, “MODIFIED CAVEOLIN-1 PEPTIDE FORMULATIONS AND METHODS OF MANUFACTURING AND USE THEREOF” (REIN THERAPEUTICS, INC., priority 2023, published 2026).

Tests used:
Settings in all cases: cited from earlier work
fibrosis = system: fibrosis
[1] = system: Wnt-signaling, β-catenin-mediated transcription, activation of SRC, EGFR, MEK1 and ERK-2
[2] = system: Cav-1 interaction with SRC kinases

In the case of DGIWKASFTTFTVTKYWFYR [CSP 20-mer], the effect on fibrosis (fibrosis; animal models) is given as “prevent, limit, or reverse fibrosis in animal models”, the “effect on lung aSMA, epithelial apoptosis, collagen and profibrogenic signaling” value (fibrosis; in vivo) is given as “reduced lung aSMA and lung epithelial apoptosis, reduced collagen deposition, and down-regulation of expression of profibrogenic signaling molecules” and the effect on signaling [1] is given as “inhibition of Wnt-signaling, β-catenin-mediated transcription, activation of SRC, EGFR, MEK1 and ERK-2”. The “effect on Cav-1 interaction with SRC kinases” value [2] was “interferes with Cav-1 interaction with SRC kinases”.
